This is an account of results in patent US20090181910A1, “METHOD OF PREVENTION AND ALLEVIATION OF TOXICITY BY MODULATION OF IRF3” (priority 2006, published 2009).

Data set [1] deals with hepatic LXR, FXR and PPARα target genes. In kind it is cell-based, human.
A further data set deals with RXRα. The data set can be described thus: BMM anti-RXRα Western blot. The class given is cell-based, Murine. The settings on record: polyI:C and LG268 treatment, 24 hrs; FIG. 8e. On the technique in general: A western blot detects proteins with antibodies after separation by electrophoresis.
In a further data set the test system is RXRα promoter region. The data set can be described thus: ChIP of Hes1 and HDAC1 in BMMs. The following applies: polyI:C 1 μg/ml 1, 3 and 6 hours; FIG. 9e,f. In kind it is cell-based, Murine. On the procedure:
FIG. 9: PolyI:C transcriptionally represses RXRα through recruitment of transcriptional repression machinery. a, BMMs were stimulated with media or polyI:C (1 μg/ml) for 2 hrs, followed by actinomycin D (ActD) (5 μg/ml) for 0, 15, 30, 60, 120 min. BMMs were stimulated with polyI:C (1 μg/ml) for 4 hrs or 8 hrs. RNA was analyzed by Q-PCR. b, Diagram of RXRα promoter based on promoter analysis software (MatInspector). BMMs were stimulated with LPS (10 ng/ml) or polyI:C (1 μg/ml) for 4 hrs. RNA was analyzed by Q-PCR. Wildtype, IRF3^−/− and IFNAR^−/− BMMs were stimulated with polyI:C (1 μg/ml) for 4 hrs. RNA was analyzed by Q-PCR. c, pCMV-RAW 264.7 cells (MT) or pCMV-Hes1-RAW 264.7 cells (Hes1) RNA was analyzed by Q-PCR. d, RAW264.7 cells transfected with siNS or siHes1 duplex oligos were stimulated with polyI:C (1 μg/ml) for 8 hours. RNA was analyzed by Q-PCR. e, f, BMMs were stimulated with polyI:C (1 μg/ml) for 1, 3 and 6 hours. Following stimulation, chromatin immunoprecipitation (ChIP) was performed with anti-Hes1 or anti-HDAC1 antibodies on sonicated samples, washed thoroughly and analyzed by PCR/agarose gel electrophoresis. PCR products on gel are quantified by ImageJ, normalized to Input. g, BMMs were pre-treated with Trichostatin A (TSA) (50 ng/ml) overnight and then stimulated with polyI:C (1 μg/ml) for 4 and 8 hrs. RNA was analyzed by Q-PCR. […]

For a further data set, the system named is CRBPII. Briefly: RAW 264.7 Q-PCR: CRBPII. The class given is cell-based, murine.
In data set [2] the test system is PXR/RXR ER6 binding region of CYP3A4. The data set can be described thus: ChIP with anti-RXRα antibody at CYP3A4. The class given is cell-based, human. The following applies: combinatorial treatment with rifampicin 25 μM and polyI:C, 24 hours; FIG. 10g and h. On the procedure:
FIG. 10: PolyI:C transcriptional repression of RXRα is critical for repression of nuclear receptor target genes. a, Wildtype, IRF3^−/− and IFNAR^−/− BMMs were stimulated with Control (DMSO), or LG268 (10 nM) with or without polyI:C (1 μg/ml). RNA was analyzed by Q-PCR. b, pCMV-RAW 264.7 cells (MT) or pCMV-Hes1-RAW 264.7 cells (Hes1) were stimulated with Control (DMSO) and 9cRA with or without polyI:C (1 μg/ml) for 24 hrs. RNA was analyzed by Q-PCR. c, RAW264.7 cells transfected with siNS or siHes1 duplex oligos were stimulated with Control (DMSO) and 9cRA (10 μM) with or without polyI:C (1 μg/ml) for 24 hours. RNA was analyzed by Q-PCR. d, pBabe-RAW 264.7 cells (Raw_MT) and pBabe-RXRα-RAW264.7 cells (Raw-RXRα) were stimulated with Control (DMSO) or LG268 (10 nM) with or without polyI:C (1 μg/ml) for 24 hrs. RNA was analyzed by Q-PCR. e, pBabe-Huh7 cells (Huh7 MT) and pBabe-RXRα-Huh7 cells (Huh7-RXRα) were stimulated with Control (DMSO) and rifampicin (25 μM) with or without polyI:C (2 μg/ml, transfected). RNA was analyzed by Q-PCR. f, pBabe-Huh7 cells (Huh7 MT) and pBabe-RXRα-Huh7 cells (Huh7_RXRα) were stimulated with Control (DMSO) and ASA (20 μg/ml) with or without polyI:C (2 μg/ml, transfected). RNA was analyzed by Q-PCR. g,h, BMMs were stimulated with rifampicin (25 μM) and polyI:C (1 μg/ml) for 24 hours. […] PCR products on gel are quantified by ImageJ, normalized to Input. […]

The conditions of data set [3]: mouse, in vivo.
The conditions of data set [4]: Dolphin et al. 1987; cited from earlier work.

As for “polyinosinic:polycytidylic acid [polyI:C]”, the “effect on LXR, FXR and PPARα-mediated induction of target genes” value in data set [1] was “inhibited”. Also, the “RXRα protein levels in IRF3^−/− BMMs” value with RXRα was “significantly higher than in WT or IFNAR^−/− BMMs”. The “recruitment of Hes1 and HDAC1 (ChIP)” value with RXRα promoter region is “promotes specific recruitment of Hes1 and HDAC1 to the RXRα promoter region”. Further, in the data set on CRBPII, the “9cRA induction of CRBPII” value was “unable to repress 9cRA induction of CRBPII”. For the same substance, the “RXRα present on CYP3A4 promoter (ChIP)” value in data set [2] is “maximal loss of RXRα in the PXR/RXR ER6 binding region of CYP3A4”. In addition, in data set [3], the “LCA-mediated serum ALT increase and liver damage” value was “failed to promote LCA-mediated increases of serum ALT levels or enhance liver damage”; the “serum ALT levels, agent alone” value is on record as “did not significantly increase serum ALT levels”. Further, in data set [4], the “ASA metabolism after polyI:C treatment” value is reported as “results in defective ASA metabolism”.
